Source: US20230134859A1, “METHOD FOR SCREENING FOR, METHOD FOR PRODUCING, AND METHOD FOR DESIGNING DRUG ACTIVE INGREDIENTS” (SKY PHARMA CO., LTD., priority 2020, published 2023)

Assays:
Assay type in all cases: in vivo
[1] = test system: sox1α, sox2, sox3, and her6; test: Test Example 1: quantitative PCR of neural stem cell markers in brains of treated zebrafish; conditions: brain of treated zebrafish individuals; ΔΔCt; vs control
Experimental: Moreover, the brains of the treated zebrafish individuals were dissected and washed with sterile distilled water, and then crushed by pipetting or 1 ml syringe suction discharge with 18 G to 24 G needles in 500 μl of Sepasol-RNA I Super G (Nacalai Tesque). A deproteinization operation was conducted once by equivalent phenol/chloroform treatment and once by chloroform treatment, and the supernatant was subjected to RNA purification using an RNA purification column (RNeasy Plus Mini Kit, Qiagen). The elute was reverse-transcribed using a mixed primer of random hexamer and oligo-dT (ReverTra Ace qPCR Kit, TOYOBO) at 37° C. for 15 minutes and 98° C. for 5 minutes, and quantitative PCR of expression levels of sox1α, sox2, sox3, and her6, which are markers of neural stem cells, was performed. Quantitative PCR was performed with SYBER Green Realtime PCR Master Mix (TOYOBO). For the PCR reaction, ABI PRISM 7700 or LightCycler from Roche Diagnostics K.K. was used. Quantification was performed in 3 wells per identical sample (n=3). The obtained data was comparatively quantified by a ΔΔCt method using a normalizer (β-actin, GAPDH, 18S, or the like). In order to confirm that the quantitative reaction was reliable, it was confirmed that the amplification product was in a band by agarose electrophoresis.

Purkinje cells = test: Test Example 6: increase in Purkinje cells of adult mouse after injection into E11.5 fetal ventricle; conditions: test compounds = Compounds 1 to 7; 100 μM injected into E11.5 fetal ventricle, counted in adult mice; vs control; N=10
Experimental: A solution prepared by dissolving 100 μM of the test compound in physiological saline was injected into E11.5 mouse fetal ventricle. Brains of adult mouse individuals were fixed, and slice sections of cerebellar Purkinje cell layers were immunostained with an anti-d-Calbindin antibody, which is a marker of cell bodies and neurites of Purkinje cells. After staining, the number of Purkinje cells was counted, and the average value thereof was calculated.
As a control experiment (control), a similar experiment was performed using physiological saline containing no test compound.
The number of samples is 10 for each of Compounds 1 to 7 and control (N=10).

cardiomyocytes = test: Test Example 8: enhancement of myocardium in zebrafish embryo (nkx2.5 in situ hybridization, blood cells pumped per heartbeat); conditions: test compounds = Compounds 1 to 7; 100 μM injected at heart primordium 10 h after fertilization; vs control; n=80
Experimental: Zebrafish embryos at 10 hours after fertilization were held with the dorsal side of the head up on a coffin (plastic plate with V-shaped grooves for holding), and a glass capillary was inserted into a midline between head and ear vesicles (heart primordium). Nitrogen gas pressure (15 picosiemens) was applied for 15 to 45 milliseconds and injected into the gap just below the neural tube. The test compound concentration was 100 μM/E3, and 0.025% (final concentration) phenol red was mixed as a tracer of the injection solution. The injection was performed in pulses with a foot pedal and continued until phenol red was distributed in an elliptical shape with a major axis of 200 μm from the insertion point. After injection, embryos were cultured at 28.5° C. for 14 hours in E3. After chorions were removed with tweezers, the embryos were fixed with 4% paraformaldehyde/PBS at normal temperature for 1 hour, and in situ hybridization was performed overnight at 65° C. in the presence of a DIG probe of nk×2.5 as a cardiac muscle marker according to a conventional method. After washing, cardiomyocytes were stained by an alkali phosphatase color reaction using an anti-DIG antibody. The stained embryos were washed with PBS, embedded in 75% glycerin/PBS and localized, and then microscopically photographed with incident light. The number of tested individuals was unified with n=80 for each compound.
In addition, the zebrafish embryos injected with the test compound by the above-described method were cultured at 28.5° C. until 48 hours after fertilization, embedded in 3% methyl cellulose/E3, and a moving image was photographed. The number of blood cells pumped in one heartbeat in time-lapse was counted n=15 and compared to Ringer injected individuals.

pancreatic β cells = test: Test Example 9: pancreatic β cells and insulin in transgenic zebrafish embryos; conditions: vs control; for production amount of insulin by β cells (immunostaining with anti-insulin antibody, average fluorescence intensity): 100 nM or 5 nM, 20 h after injection, n=10; for production amount of insulin by β cells (in situ hybridization, ins probe): 100 nM, 14 h after injection, n=100
Experimental: Transgenic zebrafish expressing pancreatic β-cell GFP
Transgenic zebrafish embryos expressing pancreatic β-cell GFP at 10 hours after fertilization were held with the dorsal side of the head up on a coffin, and a glass capillary was inserted from the dorsal side into a gap just below the midline neural tube at about 2 times the distance between the rostral end and the ear vesicles to the caudal side (pancreatic primordium). A nitrogen gas pressure (15 picosiemens) was applied for 15 to 45 milliseconds, and the test compound was injected. The concentration of the test compound was 100 nM/E3, and 0.025% (final concentration) phenol red was mixed as a tracer of the infusion solution. The injection was performed in pulses with a foot pedal and continued until phenol red was distributed in an elliptical shape with a major axis of 200 μm from the insertion point.
The test compound (100 nM) was injected on a coffin in transgenic zebrafish embryos expressing pancreatic β-cell GFP at 10 hours after fertilization. After injection, embryos were cultured in E3 at 28.5° C. for 14 hours. After chorions were removed with tweezers, the embryos were fixed with 4% paraformaldehyde/PBS at room temperature for 1 hour, and in situ hybridization was performed overnight at 65° C. in the presence of a DIG probe of insulin (ins) according to a conventional method. After washing, β cells were stained by an alkali phosphatase color reaction using an anti-DIG antibody. After staining, the embryos were washed with PBS, embedded in 75% glycerin/PBS and localized, and then microscopically photographed with incident light. The number of test individuals was unified with n=100 for each test compound (FIG. 23).
Transgenic zebrafish embryos expressing pancreatic β-cell GFP at 10 hours after fertilization were injected with the test compound (100 nM or 5 nM) on the coffin. After injection, embryos were cultured in E3 at 28.5° C. for 20 hours in the presence of 0.2 mM phenylthiourea (PTU). After chorions were removed with tweezers, the embryos were fixed with 4% paraformaldehyde/PBS at normal temperature for 1 hour, immunohistochemically reacted with an anti-insulin antibody according to a conventional method, and then reacted with an Alexa fluor 488 anti-mouse IgG secondary antibody. The reacted embryos were washed with PBS, embedded in 75% glycerin/PBS and localized, and then microscopically photographed with 488 nm excitation light (FIG. 24). The number of tested individuals was unified with n=10 for each compound. The insulin amount was quantified by measuring the average fluorescence intensity in a circle with a radius of 100 μm centered on the fluorescence point (FIG. 25).

[2] = test system: mesencephalic neural stem cells; test: Test Example 7: increase in neural stem cells of adult zebrafish by intracerebroventricular administration; conditions: test compounds = Compounds 1 to 7; 100 μM into ventricle of one-month-old fish, 1 week; E3 Ringer or lipofection; vs control
Experimental: Reporter gene transgenic line of zebrafish specifically expressing green fluorescent protein in mesencephalic neural stem cells
A solution (0.1% DMSO) in which the test compound (100 μM) was dissolved in E3 Ringer (zebrafish physiological saline) was prepared. Mesencephalic neural stem cells were microscopically injected into the ventricles of one-month-old adult fish individuals labeled with green fluorescent protein, and cultured at 28.5° C. for 1 week.
As a control experiment (control), only E3 Ringer (0.1% DMSO plus 0.025% phenol red) was administered into the ventricle in the same volume. […]
Specifically, the solid cultured for 7 days after injection was held in a 3% methylcellulose/E3 Ringer/0.02% tricaine solution on a slide glass, and then GFP was emitted with 488 nm excitation light and imaged by a CCD camera. In addition, the average fluorescence brightness of the green fluorescent protein in a rectangle with a width of 100 μm and a height of 50 μm with the rostral end up around the fluorescence expression part was measured with a brightness analysis software. […]
In order to inhibit synthesis of melanin pigment that interferes with observation with a fluorescence microscope, 0.2 mM phenylthiourea (PTU) had been added to the culture solution.

| Compound | expression levels of sox1α, sox2, sox3, and her6 (quantitative PCR) [1] | number of Purkinje cells in the cerebellar Purkinje cell layers (Purkinje cells) | amount of cardiomyocytes (in situ hybridization, nkx2.5) (cardiomyocytes) | production amount of insulin by β cells (immunostaining with anti-insulin antibody, average fluorescence intensity) (pancreatic β cells) | production amount of insulin by β cells (in situ hybridization, ins probe) (pancreatic β cells) | fluorescence indicating the presence of mesencephalic neural stem cells in the brain of adult zebrafish [2] |
| --- | --- | --- | --- | --- | --- | --- |
| Cc1cccc(-c2n[nH]cc2-c2ccnc3ccccc23)n1 [Compound 2, 4-[3-(6-Methylpyridin-2-yl)-1H-pyrazol-4-yl]quinoline] | significant increase in expression levels | significantly higher than that of the control | increase in the amount of cardiomyocytes was observed | significantly increased as compared with the control individual | significantly increased as compared with the control individual |  |
| O=C(O)CCC(=O)Nc1ccc(Br)cn1 [Compound 5, 4-[(5-Bromopyridin-2-yl)amino]-4-oxobutyric acid] |  | significantly higher than that of the control | increase in the amount of cardiomyocytes was observed |  | significantly increased as compared with the control individual | strongly detected as compared with the control |
| COc1cc(N2CCC(N(C)C)CC2)ccc1Nc1ncc(Cl)c(Nc2ccccc2P(C)(C)=O)n1 [Compound 6, 5-Chloro-2-N-{4-[4-(dimethylamino)piperidin-1-yl]-2-methoxyphenyl}-4-N-[2-(dimethylphosphoryl)phenyl]pyrimidine-2,4-diamine] |  |  |  | significantly increased as compared with the control individual | significantly increased as compared with the control individual |  |
